Measurements reported in patent publication US20100075973A1, “POLO-LIKE KINASE INHIBITORS” (TAKEDA PHARMACEUTICAL COMPANY LIMITED, priority 2008, published 2010).
Where “and” joins values, the source holds several entries; their conditions need not be identical. Equal entries are not always repeated.

tested on: not given; assay: not given; settings: not given

melting point	Structure (SMILES)
> 205 °C	CC[C@@H]1c2c(C#N)ncn2-c2cnc(Nc3cc(F)c(C(=O)NC4CCC(N5CCN(C)CC5)CC4)cc3OC)nc2N1C1CCCC1 (some centres unmarked) [Example 6]
155 to 158 °C	CC[C@@H]1c2c(C#N)ncn2-c2cnc(Nc3cc(F)c(C(=O)NC4CCC(N5CCN(CC(C)C)CC5)CC4)cc3OC)nc2N1C1CCCC1 (some centres unmarked) [Example 8]
165 to 170 °C	CC[C@@H]1c2c(C#N)ncn2-c2cnc(Nc3ccc(C(=O)NC4CCC(N5CCN(CC(C)C)CC5)CC4)cc3OC)nc2N1C(C)C (some centres unmarked) [Example 12]
165 to 170 °C	CC[C@@H]1c2c(C#N)ncn2-c2cnc(Nc3ccc(C(=O)NC4CCN(C5CCN(CC(C)C)CC5)CC4)cc3OC)nc2N1C(C)C [Example 23, (R)-4-(7-Cyano-6-ethyl-5-isopropyl-5,6-dihydroimidazo[1,5-f]pteridin-3-ylamino)-N-(1′-isobutyl-1,4′-bipiperidin-4-yl)-3-methoxybenzamide]
219 to 222 °C	CC[C@@H]1c2c(C#N)ncn2-c2cnc(Nc3ccc(C(=O)N[C@H]4CC[C@H](N5CCN(CC6CC6)CC5)CC4)c(F)c3)nc2N1C(C)C [Example 45]
186 to 190 °C	CC[C@@H]1c2c(C#N)ncn2-c2cnc(Nc3ccc(C(=O)N[C@H]4CC[C@H](N5CCN(CC6CC6)CC5)CC4)cc3OC)nc2N1C1CCCC1 [Example 5]
219 to 222 °C	CC[C@@H]1c2c(C#N)ncn2-c2cnc(Nc3cc(F)c(C(=O)NC4CCC(N5CCN(CC(C)C)CC5)CC4)cc3OC)nc2N1C(C)C (some centres unmarked) [Example 18]
187 to 192 °C	CC[C@@H]1c2c(C#N)ncn2-c2cnc(Nc3ccc(C(=O)NC4CCC(N5CCN(C)CC5)CC4)cc3OC)nc2N1C1CCCC1 (some centres unmarked) [Example 2]
216 to 220 °C	CC[C@@H]1c2c(C#N)ncn2-c2cnc(Nc3ccc(C(=O)NC4CCC(N5CCN(C(C)C)CC5)CC4)cc3OC)nc2N1C1CCCC1 (some centres unmarked) [Example 4]
195 to 198 °C	CC[C@@H]1c2c(C#N)ncn2-c2cnc(Nc3ccc(C(=O)NC4CCC(N5CCN(C)CC5)CC4)cc3OC)nc2N1C(C)C (some centres unmarked) [Example 9]
170 to 173 °C	CC[C@@H]1c2c(C#N)ncn2-c2cnc(Nc3ccc(C(=O)NC4CCC(N5CCN(CC)CC5)CC4)cc3OC)nc2N1C1CCCC1 (some centres unmarked) [Example 3]
251 to 255 °C and 250 to 254 °C	CC[C@@H]1c2c(C#N)ncn2-c2cnc(Nc3cc(F)c(C(=O)N[C@H]4CC[C@H](N5CCN(CC6CC6)CC5)CC4)cc3OC)nc2N1C(C)C [Example 1]
198 to 204 °C	CC[C@@H]1c2c(C#N)ncn2-c2cnc(Nc3ccc(C(=O)NC4CCC(N5CCN(CC6CC6)CC5)CC4)cc3OC)nc2N1C(C)C (some centres unmarked) [Example 11]

target: T1, human PLK1 (Homo sapiens, UniProt P53350); assay: In vitro enzymatic assay: phosphorylation of alpha casein by recombinant PLK1 (Example A); assay type: biochemical; settings: recombinant FLAG-tagged PLK1, alpha casein substrate, 500 nmol/L ATP, [γ-32P]ATP, room temperature 40 min; read-out: pIC50 PLK1 (converted)
T1 construct: made in house; host or cells: Sf21 insect cells, recombinant baculovirus (pFASTBAC1, Bac-to-Bac)
Protocol: Purified PLK1 may be obtained as follows. cDNA encoding human PLK1 SEQ ID No. 1, Accession Number: NM_005030 was isolated by polymerase chain reaction PCR with primers SEQ ID Nos. 2 and 3 and cloned into pcDNA4/His-Max-TOPO Invitrogen, USA according to the manufacturer's manual. PCR was performed using the vector as a template. In the PCR, primers containing sequences encoding a FLAG-tag DYKDDDDK in the amino-terminal region SEQ ID No. 4 and vector sequence SEQ ID No. 5 were used. After XbaI and XhoI digestion of the PCR product, the fragment was subcloned into pFASTBAC1 Invitrogen, USA. Recombinant baculoviruses were prepared according to the procedure of the Bac-to-Bac baculovirus expression system Invitrogen, USA. Sf21 cells were purchased from Invitrogen and grown in Sf-900 II SFM medium containing 10% fetal bovine serum, 50 gentamicin and 0.1% pluronic F-68 Invitrogen, USA at 28° C. For preparation of PLK1 enzyme, Sf21 cells were infected with recombinant baculoviruses and cultured at 28° C. for 72 h. Cells were lysed and FLAG-tagged PLK1 protein SEQ ID No. 6 was purified by affinity chromatography using anti-FLAG M2 affinity gel Sigma, USA.
The inhibition of PLK1 by the compounds was determined with the following assay that measures the phosphorylation of alpha casein by recombinant PLK1. Kinase reactions were performed at room temperature for 40 min in the kinase reaction buffer 25 mmol/L HEPES, pH 7.5, 10 mmol/L magnesium acetate, 1 mmol/L dithiothreitol containing 50 ng PLK1 enzyme, 0.1 μCi [γ-^32P]ATP, 500 nmol/L ATP and 3 μg alpha casein MP Biomedicals Inc., USA in a final volume of 50 μL. The incubation was terminated by the addition of 10% trichloroacetic acid Wako, Japan. Phosphorylated proteins were filtrated in GF/C filter plates Packard, USA with a Cell harvester Packard, USA and washed out free [γ-^32P]-ATP with 250 mmol/L phosphoric acid. Then, the plates were air dried for 60 min at 45° C., followed by the addition of 20 μL of MicroScint-O Packard, USA. The radioactivity was counted by a Top-count scintillation counter Packard, USA. The IC50 values for test compounds were calculated by Prism 3.02 GraphPad Software, USA.
pIC50 values are the negative of the log of the IC50s and may be calculated by non-linear curve fitting of the compound concentrations and fluorescence intensities to the standard pIC50 equation.

T1 sequence (P53350 whole entry): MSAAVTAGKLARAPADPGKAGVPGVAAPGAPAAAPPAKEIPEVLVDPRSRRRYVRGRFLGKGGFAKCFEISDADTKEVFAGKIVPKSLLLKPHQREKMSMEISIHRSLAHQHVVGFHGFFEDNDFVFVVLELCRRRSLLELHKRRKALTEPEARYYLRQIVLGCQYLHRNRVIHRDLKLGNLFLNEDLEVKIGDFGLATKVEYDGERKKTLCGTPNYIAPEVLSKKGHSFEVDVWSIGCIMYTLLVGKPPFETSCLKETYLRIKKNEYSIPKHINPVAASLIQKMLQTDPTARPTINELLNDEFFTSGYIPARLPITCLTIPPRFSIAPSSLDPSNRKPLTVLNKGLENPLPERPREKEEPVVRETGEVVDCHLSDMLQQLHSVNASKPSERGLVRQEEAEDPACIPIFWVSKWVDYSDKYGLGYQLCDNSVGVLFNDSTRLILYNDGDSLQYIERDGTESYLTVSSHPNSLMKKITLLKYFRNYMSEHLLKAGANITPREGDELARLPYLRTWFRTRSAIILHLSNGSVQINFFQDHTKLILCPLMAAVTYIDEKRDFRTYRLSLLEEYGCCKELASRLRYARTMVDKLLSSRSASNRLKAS

IC50 [nM]	Structure (SMILES)
3.16	CC[C@@H]1c2c(C#N)ncn2-c2cnc(Nc3cc(F)c(C(=O)NC4CN(C5CCN(CC6CC6)CC5)C4)cc3OC)nc2N1C(C)C [Example 38, (R)-4-(7-Cyano-6-ethyl-5-isopropyl-5,6-dihydroimidazo[1,5-f]pteridin-3-ylamino)-N-(1-(1-(cyclopropylmethyl)piperidin-4-yl)azetidin-3-yl)-2-fluoro-5-methoxybenzamide]
3.98	CC[C@@H]1c2c(C#N)ncn2-c2cnc(Nc3cc(F)c(C(=O)NC4CCN(C5CCN(CC)CC5)CC4)cc3OC)nc2N1C(C)C [Example 20, (R)-4-(7-Cyano-6-ethyl-5-isopropyl-5,6-dihydroimidazo[1,5-f]pteridin-3-ylamino)-N-(1′-ethyl-1,4′-bipiperidin-4-yl)-2-fluoro-5-methoxybenzamide]
1.26	CC[C@@H]1c2c(C#N)ncn2-c2cnc(Nc3cc(F)c(C(=O)NC4CCN(C5CCN(CC(C)C)CC5)CC4)cc3OC)nc2N1C1CCCC1 [Example 29, (R)-4-(7-Cyano-5-cyclopentyl-6-ethyl-5,6-dihydroimidazo[1,5-f]pteridin-3-ylamino)-2-fluoro-N-(1′-isobutyl-1,4′-bipiperidin-4-yl)-5-methoxybenzamide]
3.16	CC[C@@H]1c2c(C#N)ncn2-c2cnc(Nc3ccc(C(=O)NC4CCN(C5CCN(CC6CC6)CC5)CC4)cc3OC)nc2N1C(C)C [Example 21, (R)-4-(7-Cyano-6-ethyl-5-isopropyl-5,6-dihydroimidazo[1,5-f]pteridin-3-ylamino)-N-(1′-(cyclopropylmethyl)-1,4′-bipiperidin-4-yl)-3-methoxybenzamide]
2	CC[C@@H]1c2c(C#N)ncn2-c2cnc(Nc3ccc(C(=O)NC4CCN(C5CCN(CC(C)C)CC5)CC4)cc3OC)nc2N1C1CCCC1 [Example 27, (R)-4-(7-Cyano-5-cyclopentyl-6-ethyl-5,6-dihydroimidazo[1,5-f]pteridin-3-ylamino)-N-(1′-isobutyl-1,4′-bipiperidin-4-yl)-3-methoxybenzamide]
3.16	CC[C@@H]1c2c(C#N)ncn2-c2cnc(Nc3ccc(C(=O)NC4CN(C5CCN(CC6CC6)CC5)C4)cc3OC)nc2N1C(C)C [Example 37, (R)-4-(7-Cyano-6-ethyl-5-isopropyl-5,6-dihydroimidazo[1,5-f]pteridin-3-ylamino)-N-(1-(1-(cyclopropylmethyl)piperidin-4-yl)azetidin-3-yl)-3-methoxybenzamide]
3.98	CC[C@@H]1c2c(C#N)ncn2-c2cnc(Nc3cc(F)c(C(=O)NC4CCN(C5CCN(CC6CC6)CC5)CC4)cc3OC)nc2N1C(C)C [Example 22, (R)-4-(7-Cyano-6-ethyl-5-isopropyl-5,6-dihydroimidazo[1,5-f]pteridin-3-ylamino)-N-(1′-(cyclopropylmethyl)-1,4′-bipiperidin-4-yl)-2-fluoro-5-methoxybenzamide]
10	CC[C@@H]1c2c(C#N)ncn2-c2cnc(Nc3cc(F)c(C(=O)Nc4cccc(CN5CCN(C)CC5)c4)cc3OC)nc2N1C(C)C [Example 31, (R)-4-(7-Cyano-6-ethyl-5-isopropyl-5,6-dihydroimidazo[1,5-f]pteridin-3-ylamino)-2-fluoro-5-methoxy-N-(3-((4-methylpiperazin-1-yl)methyl)phenyl)benzamide]
1	CC[C@@H]1c2c(C#N)ncn2-c2cnc(Nc3ccc(C(=O)NC4CCN(C5CCN(CC6CC6)CC5)CC4)cc3OC)nc2N1C1CCCC1 [Example 26, (R)-4-(7-Cyano-5-cyclopentyl-6-ethyl-5,6-dihydroimidazo[1,5-f]pteridin-3-ylamino)-N-(1′-(cyclopropylmethyl)-1,4′-bipiperidin-4-yl)-3-methoxybenzamide]
2	CC[C@@H]1c2c(C#N)ncn2-c2cnc(Nc3ccc(C(=O)NC4CCN(C5CCN(CC)CC5)CC4)cc3OC)nc2N1C(C)C [Example 19, (R)-4-(7-Cyano-6-ethyl-5-isopropyl-5,6-dihydroimidazo[1,5-f]pteridin-3-ylamino)-N-(1′-ethyl-1,4′-bipiperidin-4-yl)-3-methoxybenzamide]
